According to article PMC12345137 (mBio, 2025):
Where two headings read alike, the source gives them in different places. Positions of bridges follow the written chain, without caps; N, C: chain ends. Residues, ends and D or L forms follow the SMILES beside them.

Legend:
SA AgrC-IV [1] = target: T1, SA AgrC-IV (Staphylococcus aureus, UniProt Q309Z2); test: β-Lactamase assay, reporter strain RN10829 (P2-agrA:P3-blaZ) with pagrC-IV; assay type: cell-based; conditions: 100 nM cognate AIP; ± SEM; -b = no inhibition recorded at the highest AIP concentration tested; -a = only partial inhibition observed; this study (curves in Fig. S22)
T1 sequence (Q309Z2 entry or part of it): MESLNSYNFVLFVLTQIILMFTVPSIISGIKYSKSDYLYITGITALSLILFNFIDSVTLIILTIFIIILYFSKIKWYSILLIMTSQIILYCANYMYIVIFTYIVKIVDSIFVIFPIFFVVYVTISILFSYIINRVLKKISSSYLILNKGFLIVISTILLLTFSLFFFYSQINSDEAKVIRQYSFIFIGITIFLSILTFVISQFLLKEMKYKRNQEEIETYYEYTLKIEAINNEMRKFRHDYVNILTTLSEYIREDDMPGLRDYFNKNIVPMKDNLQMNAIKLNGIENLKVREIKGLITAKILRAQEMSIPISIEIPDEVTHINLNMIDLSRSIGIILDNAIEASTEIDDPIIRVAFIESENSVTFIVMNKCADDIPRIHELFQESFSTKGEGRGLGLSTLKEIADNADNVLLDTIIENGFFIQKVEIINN
Outline: (§1)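 S. aureus RN10829 P2-agrA:P3-blaZ reporter carrying a plasmid for the matching wild-type AgrC, grown in TSB to OD600 0.35–0.40. Cells met peptides (10 μM–10 pM) plus cognate AIP at 100 nM for 1 h at 37°C, then nitrocefin (33.3 μg/mL) turnover was read at OD486 for 10 min; IC50 from linear rates.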

SA AgrC-II [2] = target: T2, SA AgrC-II (Staphylococcus aureus, UniProt O33587); test: β-Lactamase assay, reporter strain RN10829 (P2-agrA:P3-blaZ) with pagrC-II; assay type: cell-based
T2 sequence (O33587 entry or part of it): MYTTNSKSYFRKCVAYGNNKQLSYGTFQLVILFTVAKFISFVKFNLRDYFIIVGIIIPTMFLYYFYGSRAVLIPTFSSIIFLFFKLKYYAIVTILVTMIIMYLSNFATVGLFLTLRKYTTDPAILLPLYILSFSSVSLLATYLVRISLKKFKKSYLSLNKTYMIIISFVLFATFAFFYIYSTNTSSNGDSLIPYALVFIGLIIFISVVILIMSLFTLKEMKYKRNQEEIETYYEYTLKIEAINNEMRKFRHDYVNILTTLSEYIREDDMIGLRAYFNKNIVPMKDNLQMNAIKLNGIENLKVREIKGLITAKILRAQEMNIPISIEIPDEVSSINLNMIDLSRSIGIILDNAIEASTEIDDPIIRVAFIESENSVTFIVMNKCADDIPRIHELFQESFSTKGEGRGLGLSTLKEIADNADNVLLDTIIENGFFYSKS
Outline: as §1

S. aureus (SA) agr-II [3] = conditions: b-lactamase, cited from earlier work
S. aureus (SA) agr-I = conditions: b-lactamase, cited from earlier work
SA AgrC-III [4] = target: T3, SA AgrC-III (Staphylococcus aureus, UniProt O33590); test: β-Lactamase assay, reporter strain RN10829 (P2-agrA:P3-blaZ) with pagrC-III; assay type: cell-based
T3 sequence (O33590 entry or part of it): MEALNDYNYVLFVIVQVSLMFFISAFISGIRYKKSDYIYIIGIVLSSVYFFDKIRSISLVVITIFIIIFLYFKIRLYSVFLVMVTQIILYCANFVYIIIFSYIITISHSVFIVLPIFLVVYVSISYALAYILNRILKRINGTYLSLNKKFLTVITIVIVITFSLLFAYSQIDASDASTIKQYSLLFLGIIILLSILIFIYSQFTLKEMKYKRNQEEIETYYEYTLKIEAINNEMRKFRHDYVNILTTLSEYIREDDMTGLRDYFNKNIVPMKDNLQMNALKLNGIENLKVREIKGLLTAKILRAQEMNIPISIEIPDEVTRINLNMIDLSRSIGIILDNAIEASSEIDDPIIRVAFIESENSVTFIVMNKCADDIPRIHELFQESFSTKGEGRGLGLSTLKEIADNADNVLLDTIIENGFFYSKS
Outline: as §1

SA AgrC-I [5] = target: T4, SA AgrC-I (Staphylococcus aureus, UniProt O07911); test: β-Lactamase assay, reporter strain RN10829 (P2-agrA:P3-blaZ) with pagrC-I; assay type: cell-based
T4 sequence (O07911 entry or part of it): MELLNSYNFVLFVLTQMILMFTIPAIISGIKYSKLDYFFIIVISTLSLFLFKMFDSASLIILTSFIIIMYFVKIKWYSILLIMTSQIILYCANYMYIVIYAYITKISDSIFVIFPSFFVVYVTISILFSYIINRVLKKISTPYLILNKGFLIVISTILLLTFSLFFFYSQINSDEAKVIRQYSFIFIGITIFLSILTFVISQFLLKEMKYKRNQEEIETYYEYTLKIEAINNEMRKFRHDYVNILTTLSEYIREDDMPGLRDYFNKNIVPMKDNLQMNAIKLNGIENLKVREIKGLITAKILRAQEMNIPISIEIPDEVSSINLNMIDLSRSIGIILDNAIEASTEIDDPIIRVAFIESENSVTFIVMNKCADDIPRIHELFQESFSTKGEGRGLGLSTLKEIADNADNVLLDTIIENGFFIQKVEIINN
Excerpt: The β-lactamase reporter strain RN10829 (P2-agrA:P3-blaZ) ([62]), with pagrC-I ([63]), pagrC-II, pagrC-III, or pagrC-IV ([11]), substituting the native agr locus with a chromosomal integration of P2-agrA and P3-blaZ and a plasmid from which a wild-type variant of the corresponding AgrC is expressed, was used to assess inhibition and activation of the AgrC receptor via β-lactamase activity in response to varying concentrations of the QS modulating peptides. Overnight cultures of the reporter strains in TSB medium were diluted 1:250 in fresh TSB medium and grown to OD600 = 0.35–0.40 (early exponential phase) at 37°C. Peptide solutions (10 μL) in 1:10 serial dilutions from DMSO stock solutions (1 mM) in TSB medium (final concentrations = 10 μM–10 pM) were added to each well of a clear 96-well plate as well as solutions (10 μL) of cognate AIP (final concentration = 100 nM) in TSB medium followed by 80 μL of bacterial cells. […] The 96-well plates were incubated at 37°C shaking at 200 rpm for 1 h and immediately frozen down at −80°C to minimize growth during nitrocefin treatment. Next, the 96-well plates were thawed, and OD600 values were determined using a plate reader followed by the addition of 50 μL of nitrocefin solution to the wells (final concentration = 33.3 μg/mL). β-Lactamase activity was monitored at OD486 every 20 s for 10 min at 37°C using a plate-reader. Linear nitrocefin conversion rates were plotted to obtain IC50 values by non-linear regression with variable slope using GraphPad Prism 10.4 software. Assays were performed at least as duplicate determinations in biological triplicate.

S. aureus (SA) agr-III [6] = conditions: b-lactamase, cited from earlier work
S. aureus (SA) agr-IV = conditions: b-lactamase, cited from earlier work
S. aureus (SA) agr-III [7] = test system: S. aureus (SA) agr-III; parameters: method as in ref (5) (a number printed in a supplementary file, which may have a reference list of its own: not looked up in the article's list); conditions: hemolysis; ref (5); cited from earlier work
S. aureus (SA) agr-II [8] = test system: S. aureus (SA) agr-II; parameters: method as in ref (5) (a number printed in a supplementary file, which may have a reference list of its own: not looked up in the article's list); conditions: hemolysis; ref (5); cited from earlier work
[9] = test system: S. epidermidis (SE) agr-I; conditions: fluorescence; ref (11); cited from earlier work
S. aureus (SA) agr-III [10] = conditions: fluorescence; ref (5); cited from earlier work
SA AgrC-III [11] = target: T3, SA AgrC-III; conditions: 100 nM cognate AIP; ± SEM; only partial inhibition observed; determined previously; ref (1); read-out: IC50, SA AgrC-III, b-lactamase assay, only partial inhibition observed (footnote a); cited from earlier work
SA AgrC-IV [12] = target: T1, SA AgrC-IV; conditions: ± SEM; determined previously; ref (1); read-out: EC50, SA AgrC-IV, b-lactamase assay; cited from earlier work
SA AgrC-I [13] = target: T4, SA AgrC-I; conditions: ± SEM; determined previously; ref (1); read-out: EC50, SA AgrC-I, b-lactamase assay; cited from earlier work
S. aureus (SA) agr-II [14] = conditions: fluorescence; ref (5); cited from earlier work
SA AgrC-II [15] = target: T2, SA AgrC-II; conditions: 100 nM cognate AIP; ± SEM; -b = no inhibition recorded at the highest AIP concentration tested; determined previously; ref (1); read-out: IC50, SA AgrC-II, b-lactamase assay; cited from earlier work
[16] = test system: S. epidermidis (SE) agr-I; parameters: method as in ref (9) (a number printed in a supplementary file, which may have a reference list of its own: not looked up in the article's list); conditions: HPLC d-toxin, ref (9); cited from earlier work

CC[C@H](C)[C@H](NC(=O)[C@@H](N)CCCNC(=N)N)C(=O)N1CCC[C@H]1C(=O)N[C@H](C(=O)N[C@H]1COC(=O)[C@H](Cc2ccccc2)NC(=O)[C@H](Cc2ccccc2)NC(=O)CNC(=O)[C@H]([C@@H](C)O)NC1=O)[C@@H](C)O [compound 31, S. intermedius AIP-I] (H-RIPTSTGFF; ester 5-C)
IC50, SA AgrC-IV, b-lactamase assay (SA AgrC-IV [1]): -b
IC50 (SA AgrC-II [2]): > 1000 nM
inhibition from supernatant, SA agr-II (S. aureus (SA) agr-II [3]; from supernatant, ref (16)): 40–90%
inhibition from supernatant, SA agr-I (S. aureus (SA) agr-I; from supernatant, ref (16)): 80–100%
IC50 (SA AgrC-III [4]): 104 ± 20 nM
IC50 (SA AgrC-I [5]): 87 ± 20 nM
inhibition from supernatant, SA agr-III (S. aureus (SA) agr-III [6]; from supernatant, ref (16)): 60–100%
inhibition from supernatant, SA agr-IV (S. aureus (SA) agr-IV; from supernatant, ref (16)): 10–60%

S. aureus AIP-IV [compound 4]
IC50 (S. aureus (SA) agr-III [7]): 1.49 nM
IC50 (S. aureus (SA) agr-II [8]): 0.09 nM
IC50 [9]: > 1000 nM
IC50 (S. aureus (SA) agr-III [10]): 0.46 nM
IC50 (S. aureus (SA) agr-II [3]; ref (4)): 4 nM
EC50 (S. aureus (SA) agr-I; ref (4)): 62 nM
IC50 (SA AgrC-III [11]): 9.8 ± 0.2 nM
EC50 (SA AgrC-IV [12]): 2.6 ± 0.2 nM
EC50 (SA AgrC-I [13]): 59 ± 2 nM
IC50 (S. aureus (SA) agr-II [14]): 0.37 nM
IC50 (SA AgrC-II [15]): 47 ± 9 nM
inhibition at 1000 nM, SE agr-I [16]: 40%
IC50 (S. aureus (SA) agr-III [6]; ref (4)): 1 nM
EC50 (S. aureus (SA) agr-IV; ref (4)): 13 nM
EC50 (S. aureus (SA) agr-IV; ref (7)): 7.9 nM
